By EC50 is commonly meant the concentration giving half of the maximal effect.

The values that follow come from patent publication US20230374038A1, “MODULATORS OF CYSTIC FIBROSIS TRANSMEMBRANE CONDUCTANCE REGULATOR” (VERTEX PHARMACEUTICALS INCORPORATED, priority 2020, published 2023).

Where “and” joins values, the source holds several entries; their conditions need not be identical. Equal values may be shown once. Read-outs that look alike come from different tables or passages of the source.

For data set [1] the following is noted: amide bond.
Another data set has as its target CFTR (Homo sapiens, UniProt P13569). In words: Membrane Potential Dye, Enteroid Assay B. The format is cell-based. The conditions noted are these: for EC50: read-out: Ent. B EC50. In a few lines:
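Membrane-potential fluorescence read over 15 min after chloride-free stimulation (forskolin 10 μM, IBMX 100 μM, Compound III 300 nM), with CaCCinh-A01 and Chicago Sky Blue present. Enteroids had 18-24 h compound exposure at 37 °C; activity given as % of the triple-combination corrector/potentiator reference response.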

Sequence of CFTR (P13569 with tags, fused parts or gaps DEL508-508): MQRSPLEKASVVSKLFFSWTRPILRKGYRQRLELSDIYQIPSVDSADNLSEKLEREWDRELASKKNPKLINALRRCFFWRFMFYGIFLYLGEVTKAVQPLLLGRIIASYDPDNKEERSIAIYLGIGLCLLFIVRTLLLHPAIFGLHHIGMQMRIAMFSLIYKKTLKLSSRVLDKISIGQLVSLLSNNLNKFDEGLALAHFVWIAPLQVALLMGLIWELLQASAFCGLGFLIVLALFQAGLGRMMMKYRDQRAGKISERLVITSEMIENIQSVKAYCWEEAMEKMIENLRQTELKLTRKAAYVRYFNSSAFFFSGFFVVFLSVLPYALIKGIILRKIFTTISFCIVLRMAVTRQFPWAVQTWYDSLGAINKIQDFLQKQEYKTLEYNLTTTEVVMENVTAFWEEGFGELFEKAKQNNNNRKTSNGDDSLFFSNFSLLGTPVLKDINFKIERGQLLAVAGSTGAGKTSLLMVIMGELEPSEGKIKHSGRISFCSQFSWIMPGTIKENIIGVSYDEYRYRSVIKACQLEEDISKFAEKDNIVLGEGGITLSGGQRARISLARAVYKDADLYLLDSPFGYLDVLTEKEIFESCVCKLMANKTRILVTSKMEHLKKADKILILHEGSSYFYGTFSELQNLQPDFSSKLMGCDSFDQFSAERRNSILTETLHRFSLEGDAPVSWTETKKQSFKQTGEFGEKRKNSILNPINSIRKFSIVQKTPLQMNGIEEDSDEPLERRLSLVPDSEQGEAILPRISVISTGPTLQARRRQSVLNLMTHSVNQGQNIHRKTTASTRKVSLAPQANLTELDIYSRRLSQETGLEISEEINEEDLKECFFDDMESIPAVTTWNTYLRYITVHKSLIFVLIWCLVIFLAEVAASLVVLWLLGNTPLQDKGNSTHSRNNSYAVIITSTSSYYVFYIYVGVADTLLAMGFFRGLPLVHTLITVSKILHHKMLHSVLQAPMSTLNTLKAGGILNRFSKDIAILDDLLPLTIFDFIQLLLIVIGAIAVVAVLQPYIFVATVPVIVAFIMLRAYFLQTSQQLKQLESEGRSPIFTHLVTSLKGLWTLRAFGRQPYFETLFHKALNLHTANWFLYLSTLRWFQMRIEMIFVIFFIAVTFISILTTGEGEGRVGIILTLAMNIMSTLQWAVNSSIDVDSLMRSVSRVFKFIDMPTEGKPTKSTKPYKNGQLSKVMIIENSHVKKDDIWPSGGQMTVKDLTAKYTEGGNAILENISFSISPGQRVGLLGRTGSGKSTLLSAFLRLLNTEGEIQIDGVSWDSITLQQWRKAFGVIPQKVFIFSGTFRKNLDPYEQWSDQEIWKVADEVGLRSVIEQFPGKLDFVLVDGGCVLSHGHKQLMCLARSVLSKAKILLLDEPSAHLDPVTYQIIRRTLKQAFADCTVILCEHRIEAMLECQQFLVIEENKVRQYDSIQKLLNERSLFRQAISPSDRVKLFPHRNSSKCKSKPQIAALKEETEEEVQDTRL

Compound `Cc1cccc(C)c1-c1nc2nc(c1C)OC[C@@H](CC(C)C)N(C1CC3(CC3)C1)C(=O)c1cccc(n1)S(=O)(=O)N2` [Compound 118, (11R)-6-(2,6-Dimethylphenyl)-7-methyl-11-(2-methylpropyl)-12-{spiro[2.3]hexan-5-yl}-9-oxa-2λ^6-thia-3,5,12,18,19-pentaazatricyclo[12.3.1.14,8]nonadeca-1(17),4(19),5,7,14(18),15-hexaene-2,2,13-trione] had a ring closure, yield after HPLC in data set [1] (from Cc1cccc(C)c1-c1nc(NS(=O)(=O)c2cccc(C(=O)O)n2)nc(OC[C@@H](CC(C)C)NC2CC3(CC3)C2)c1C, 13-membered ring, HATU/DIEA, DMF, 12.2 mM, 17.0 h) of 42%. Moreover, on CFTR, the “Ent. B Max Activity” value was “+++ (+++ is >60%)” and the EC50 is < 1000 nM.

With `Cc1cccc(C)c1-c1nc2nc(c1C)O[C@H](c1ccc(C(C)(C)C)cc1)[C@@H](C)NC(=O)c1cccc(c1)S(=O)(=O)N2` [Compound 172, (10R,11R)-10-(4-tert-Butylphenyl)-6-(2,6-dimethylphenyl)-7,11-dimethyl-2,2-dioxo-9-oxa-2λ^6-thia-3,5,12,19-tetrazatricyclo[12.3.1.14,8]nonadeca-1(18),4(19),5,7,14,16-hexaen-13-one], in data set [1] (13-membered ring, NaOtBu then HATU, THF/DMF, 77.0 mM, 2 steps), the ring closure, yield after HPLC is 8%. On CFTR, the “Ent. B Max Activity” value is on record as “+++ (+++ is >60%)” and the EC50 is < 1000 nM.

As to `CCc1c2nc(nc1-c1c(C)cccc1C)NS(=O)(=O)c1cccc(c1)C(=O)N(C1CC3(CC3)C1)[C@H](CC(C)C)CO2` [Compound 160, (11R)-6-(2,6-Dimethylphenyl)-7-ethyl-11-isobutyl-2,2-dioxo-12-spiro[2.3]hexan-5-yl-9-oxa-2λ^6-thia-3,5,12,19-tetrazatricyclo[12.3.1.14,8]nonadeca-1(17),4(19),5,7,14(18),15-hexaen-13-one], in data set [1] (from CCc1c(OC[C@@H](CC(C)C)NC2CC3(CC3)C2)nc(NS(=O)(=O)c2cccc(C(=O)O)c2)nc1-c1c(C)cccc1C, 13-membered ring, HATU/TEA, DMF, 31.1 mM, 3.0 h), the ring closure, yield after HPLC amounted to 60%. For the same compound, at CFTR, the “Ent. B Max Activity” value was “+++ (+++ is >60%)” and the EC50 is < 1000 nM.

For `CCc1c2nc(nc1-c1c(C)cccc1C)NS(=O)(=O)c1cccc(c1)C(=O)N[C@H](CC(C)(C)C)CO2` [Compound 161, (11R)-6-(2,6-Dimethylphenyl)-11-(2,2-dimethylpropyl)-7-ethyl-9-oxa-2λ^6-thia-3,5,12,19-tetraazatricyclo[12.3.1.14,8]nonadeca-1(18),4(19),5,7,14,16-hexaene-2,2,13-trione], the ring closure, yield after HPLC in data set [1] (from CCc1c(OC[C@H](N)CC(C)(C)C)nc(NS(=O)(=O)c2cccc(C(=O)O)c2)nc1-c1c(C)cccc1C, 13-membered ring, COMU/DIEA, DMF, 20.3 mM, 15.0 h) was found to be 41%. Further, at CFTR, the “Ent. B Max Activity” value is recorded as “+++ (+++ is >60%)” and the EC50 is < 1000 nM.

In turn, `Cc1cccc(C)c1-c1nc2nc(c1C)OC[C@@H](C)N(C1CC3(CC(NC(=O)OC(C)(C)C)C3)C1)C(=O)c1cccc(c1)S(=O)(=O)N2` (stereo partly drawn) [Compound 116, tert-Butyl N-{6-[(11R)-6-(2,6-dimethylphenyl)-7,11-dimethyl-2,2,13-trioxo-9-oxa-2λ^6-thia-3,5,12,19-tetraazatricyclo[12.3.1.14,8]nonadeca-1(18),4,6,8(19),14,16-hexaen-12-yl]spiro[3.3]heptan-2-yl}carbamate] showed a ring closure, yield after HPLC in data set [1] (from Cc1cccc(C)c1-c1nc(NS(=O)(=O)c2cccc(C(=O)O)c2)nc(OC[C@@H](C)NC2CC3(CC(NC(=O)OC(C)(C)C)C3)C2)c1C, 13-membered ring, HATU/TEA, DMF, 26.7 mM, 1.0 h) of 57%. At CFTR, the “Ent. B Max Activity” value is recorded as “++ (++ is 30-60%)” and the 50% effective concentration (EC50) was < 1000 nM.

Compound `Cc1cccc(C)c1-c1nc2nc(c1C)OC[C@@H](CC(C)(C)C)N(C1CC3(CC(NC(=O)OC(C)(C)C)C3)C1)C(=O)c1cccc(c1)S(=O)(=O)N2` (stereo partly shown) yielded a ring closure, yield after HPLC in data set [1] (from Cc1cccc(C)c1-c1nc(NS(=O)(=O)c2cccc(C(=O)O)c2)nc(OC[C@@H](CC(C)(C)C)NC2CC3(CC(NC(=O)OC(C)(C)C)C3)C2)c1C, 13-membered ring, HATU/DIEA, DMF, 14.3 mM, 72.0 h) of 62%.

`Cc1cccc(C)c1-c1nc2nc(c1C)OC[C@@H](CC(C)C)N(C1CC(OC(C)C)C1)C(=O)c1cccc(c1)S(=O)(=O)N2` (single isomer, unassigned; diastereomer 1) displayed a ring closure, yield after HPLC in data set [1] (from Cc1cccc(C)c1-c1nc(NS(=O)(=O)c2cccc(C(=O)O)c2)nc(OC[C@@H](CC(C)C)NC2CC(OC(C)C)C2)c1C, 13-membered ring, HATU/DIEA, DMF, 25.0 °C, 2 steps) of 9%.

In turn, `Cc1cccc(COC(C)C)c1-c1nc2nc(c1C)OC[C@@H](CC(C)(C)C)N(Cc1ncc(N3CCC(C)(C)C3)cn1)C(=O)c1cccc(c1)S(=O)(=O)N2` gave a ring closure, yield after HPLC in data set [1] (from Cc1cccc(COC(C)C)c1-c1nc(NS(=O)(=O)c2cccc(C(=O)O)c2)nc(OC[C@@H](CC(C)(C)C)NCc2ncc(N3CCC(C)(C)C3)cn2)c1C, 13-membered ring, CDMT/NMM, DMF, 11.0 mM, 5.0 h, 2 steps) of 13%.

In the case of “(5P,11R)-11-(2,2-dimethylpropyl)-7-methyl-6-[2-methyl-6-(3-methylbutyl)phenyl]-12-{[5-(propan-2-yloxy)pyrimidin-2-yl]methyl}-9-oxa-2λ^6-thia-3,5,12,19-tetraazatricyclo[12.3.1.14,8]nonadeca-1(17),4(19),5,7,14(18),15-hexaene-2,2,13-trione”, the ring closure, yield after HPLC in data set [1] (13-membered ring, CDMT/NMM, DMF, 33.8 mM) stood at 45%.

For the compound `Cc1cccc(C)c1-c1nc2nc(c1C)OCCCNC(=O)c1cccc(c1)S(=O)(=O)N2` [Compound 36, 6-(2,6-Dimethylphenyl)-7-methyl-9-oxa-2λ^6-thia-3,5,13,20-tetraazatricyclo[13.3.1.14,8]icosa-1(19),4,6,8(20),15,17-hexaene-2,2,14-trione], the ring closure, yield after HPLC in data set [1] (from Cc1cccc(C)c1-c1nc(NS(=O)(=O)c2cccc(C(=O)O)c2)nc(OCCCN)c1C, 14-membered ring, HATU/DIEA, DMF, 49.0 mM, 25.0 °C, 1.0 h) turned out to be 46%. Besides, on CFTR, the “Ent. B Max Activity” value is “+ (+ is <30%)” and the EC50 was 3000 to 30000 nM.

Compound `Cc1cccc(C)c1-c1nc2nc(c1C)OC[C@@H](CC(C)(C)C(F)(F)F)N(C1CC3(CCN(C(=O)OC(C)(C)C)CC3)C1)C(=O)c1cccc(c1)S(=O)(=O)N2` [Compound 156, tert-Butyl 2-[(11R)-6-(2,6-dimethylphenyl)-7-methyl-2,2,13-trioxo-11-(3,3,3-trifluoro-2,2-dimethylpropyl)-9-oxa-2λ^6-thia-3,5,12,19-tetraazatricyclo[12.3.1.14,8]nonadeca-1(17),4(19),5,7,14(18),15-hexaen-12-yl]-7-azaspiro[3.5]nonane-7-carboxylate] displayed a ring closure, yield after HPLC in data set [1] (from Cc1cccc(C)c1-c1nc(NS(=O)(=O)c2cccc(C(=O)O)c2)nc(OC[C@@H](CC(C)(C)C(F)(F)F)NC2CC3(CCN(C(=O)OC(C)(C)C)CC3)C2)c1C, 13-membered ring, HATU/DIEA, DMF, 23.2 mM, 29.0 h) of 22%. Besides, at CFTR, the “Ent. B Max Activity” value was “+++ (+++ is >60%)” and the concentration giving a half-maximal response (EC50) was < 1000 nM.

As for `Cc1cccc(C(C)C)c1-c1nc2nc(c1C)OC[C@@H](CC(C)(C)C)N(Cc1ncc(N3CCOCC3)cn1)C(=O)c1cccc(c1)S(=O)(=O)N2`, in data set [1] (from Cc1cccc(C(C)C)c1-c1nc(NS(=O)(=O)c2cccc(C(=O)O)c2)nc(OC[C@@H](CC(C)(C)C)NCc2ncc(N3CCOCC3)cn2)c1C, 13-membered ring, CDMT/NMM, DMF, 55.0 mM, 19.0 h), the ring closure, yield after HPLC is 18% and 11%.

In turn, `Cc1cccc(CC(C)C)c1-c1nc2nc(c1C(F)(F)F)OC[C@@H](CC(C)(C)C)N(Cc1ncc(N3CCOCC3)cn1)C(=O)c1cccc(c1)S(=O)(=O)N2` showed a ring closure, yield after HPLC in data set [1] (from Cc1cccc(CC(C)C)c1-c1nc(NS(=O)(=O)c2cccc(C(=O)O)c2)nc(OC[C@@H](CC(C)(C)C)NCc2ncc(N3CCOCC3)cn2)c1C(F)(F)F, 13-membered ring, CDMT/NMM, DMF, 92.0 mM, 4.0 h) of 37%.

As to “(5P,11R)-11-(2,2-dimethylpropyl)-12-({5-[(2,2-dimethylpropyl)(methyl)amino]pyrimidin-2-yl}methyl)-7-methyl-6-[2-methyl-6-(2-methylpropyl)phenyl]-9-oxa-2λ^6-thia-3,5,12,19-tetraazatricyclo[12.3.1.14,8]nonadeca-1(17),4(19),5,7,14(18),15-hexaene-2,2,13-trione”, the ring closure, yield after HPLC in data set [1] (13-membered ring, CDMT/NMM, DMF, 19.0 mM, 2 steps) came to 11%.

Regarding `Cc1cccc(C)c1-c1nc2nc(c1C)OC[C@@H](CC(C)(C)C)N(C1CC3(C1)CC(C(C)(C)O)C3)C(=O)c1cccc(c1)S(=O)(=O)N2` (stereo partly shown), the ring closure, yield after HPLC in data set [1] (from Cc1cccc(C)c1-c1nc(NS(=O)(=O)c2cccc(C(=O)O)c2)nc(OC[C@@H](CC(C)(C)C)NC2CC3(C2)CC(C(C)(C)O)C3)c1C, 13-membered ring, HATU/DIEA, DMF, 28.7 mM, 16.0 h) is 6%.

Regarding “(5M,11R)-11-(2,2-dimethylpropyl)-7-methyl-6-[2-methyl-6-(3-methylbutyl)phenyl]-12-{[5-(propan-2-yloxy)pyrimidin-2-yl]methyl}-9-oxa-2λ^6-thia-3,5,12,19-tetraazatricyclo[12.3.1.14,8] nonadeca-1(17),4(19),5,7,14(18),15-hexaene-2,2,13-trione”, the ring closure, yield after HPLC in data set [1] (13-membered ring, CDMT/NMM, DMF, 47.4 mM) is 40%.

Compound “(5P,11R)-6-(2-cyclopropyl-6-methyl-phenyl)-11-(2,2-dimethylpropyl)-7-methyl-12-[(5-morpholinopyrimidin-2-yl)methyl]-2,2-dioxo-9-oxa-2^6-thia-3,5,12,19-tetrazatricyclo[12.3.1.14,8]nonadeca-1(18),4(19),5,7,14,16-hexaen-13-one” displayed a ring closure, yield after HPLC in data set [1] (13-membered ring, CDMT/NMM, DMF, 122.0 mM) of 25%.
